Test results reported in paper PMC12754617, “Ruthenium-enhanced curcumin derivatives target tumor growth and cancer-related inflammation in head and neck cancer models” (Frontiers in Oncology, 2025).
Like-named read-outs stand apart in the source and are kept apart here.

What was measured:
[1] = tested on: NF-κB in THP1-Blue NF-κB cells; experiment: NF-κB activity assay (SEAP reporter, LPS-induced); type: cell-based; conditions: LPS 10 ng/mL
Procedure: THP1-Blue NF-κB cells, NF-κB secreted embryonic alkaline phosphatase (SEAP) reporter monocytes (InvivoGen, USA), were assayed after 20–24 h of incubation following the manufacturer’s protocol. Briefly, cells were seeded at 1 × 10^6 cells/mL in RPMI medium in 96-well plates (180 μL) and treated with complex 3 or 4, Lipopolysaccharide (LPS) (10 ng/mL; […] The next day, NF-κB activation was assessed via the secretion of SEAP. Supernatants (20 μL) were transferred to 96-well plates, and 180 μL of Quanti-Blue was added. Plates were incubated for 2 h at 37°C, and absorbance was measured at 600 nm using an […] 200 PRO microplate reader (TECAN, Switzerland).

KB = experiment: MTT viability assay; type: cell-based, human
Procedure: (§1) A colorimetric 3-(4,5-dimethylthiazolyl)-2,5-diphenyltetrazolium bromide (MTT) cell metabolic activity assay was used to assess the cytotoxicity of complexes 3 and 4. The cells (described above) were cultured under standard conditions. Cells were seeded in 96-well plates at a density of 10,000 cells per well (200 μL) and allowed to grow for 24 h. The medium was then replaced with medium containing complex 3 or 4 at a concentration ranging from 0 to 200 μM, and the cells were incubated for an additional 24, 48, and 72 h. Subsequently, the medium was replaced with MTT solution, consisting of yellow tetrazolium dye 3-(4,5-dimethylthiazol-2-yl)-2,5-diphenyltetrazolium bromide (Sigma-Aldrich, Merck, Germany), and incubated for 2 h at 37°C. The dye was then removed, and the resulting purple formazan formed in viable cells was dissolved in DMSO, followed by shaking for 30 s. Absorbance was measured at 570 nm using an […] 200 PRO microplate reader (TECAN, Männedorf, Switzerland). All experiments were performed in quadruplicate and repeated three times.
(§2) The cell inhibitory concentration (IC) was calculated using the equation IC = (Acomplex3/complex4 well/mean Acontrol wells) × 100%. The half-maximal inhibitory concentration (IC50) was determined from dose–response curves using GraphPad Prism 10 (GraphPad Software Inc., La Jolla, CA, USA). The selectivity index toward cancer cells was calculated as a ratio of the average IC50 value for HGF to the IC50 value for the corresponding cancer cell line.

Hep-2 = experiment: MTT viability assay; type: cell-based, human
Procedure: as §1, §2

CAL 27 = experiment: MTT viability assay; type: cell-based, human
Procedure: as §1, §2

HGF = experiment: MTT viability assay; type: cell-based, human
Procedure: as §1, §2

Detroit 562 = experiment: MTT viability assay; type: cell-based, human
Procedure: as §1, §2

TR146 = experiment: MTT viability assay; type: cell-based, human
Procedure: as §1, §2

SCC-9 = experiment: MTT viability assay; type: cell-based, human
Procedure: as §1, §2

FaDu = experiment: MTT viability assay; type: cell-based, human
Procedure: as §1, §2

IL-8 = biological target: T1, IL-8 (Homo sapiens, UniProt P10145); experiment: Sandwich ELISA assay IL-8; type: binding; conditions: for Decrease of IL-8 concentration: 500 pg/mL IL-8
T1 construct: purchased PeproTech, Thermo Fisher Scientific
T1 sequence (P10145 21-99): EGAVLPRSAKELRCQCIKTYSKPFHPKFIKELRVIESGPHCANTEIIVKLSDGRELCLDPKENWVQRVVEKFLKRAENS
Procedure: Human ELISA kits for IL-6, IL-6R, and IL-8 (Sigma-Aldrich, Merck, Germany) were used to quantify cytokine levels after treatment with complex 3 or 4. Briefly, 96-well plates precoated with specific antibodies were used to capture IL-6, IL-6R, and IL-8 from samples. […] Each sample was supplemented with 500 pg/mL of IL-6/IL-6R/IL-8. Positive control wells contained only the IL-6/IL-6R/IL-8 standard (PeproTech, Thermo Fisher Scientific, Waltham, Massachusetts, USA). […] After incubation, wells were washed, and biotinylated antihuman antibodies were added, followed by washing and addition of HRP-conjugated streptavidin. Finally, the TMB substrate was added to develop a color proportional to the cytokine concentration, and the reaction was stopped with the stop solution. Absorbance was measured at 450 nm using an […] 200 PRO microplate reader (TECAN, Switzerland).

THP1-Blue NF-κB cells = experiment: MTT viability assay of THP1-Blue NF-κB cells; type: cell-based; conditions: concentrations of the NF-κB activity assay, overnight
Procedure: A total of 20 μL of sterile filtered MTT (Sigma-Aldrich, Merck, Germany) solution (5 mg/mL in PBS) was added to the remaining overnight culture of THP1-Blue NF-κB cells from the above NF-κB activity assay in 96-well plates, which were incubated at 37°C (see above). After 2 h of incubation at 37°C, the supernatant was removed, and the purple formazan product generated in the cells was dissolved by the addition of 100 μL of DMSO to each well. The plates were then gently shaken for 30 s at room temperature to dissolve the precipitates. The absorbance was measured at 570 nm using an […] 200 PRO microplate reader (TECAN, Switzerland) ([43]).

[2] = Hep-2, 24 h, read-out: IC50 24h
[3] = Hep-2, 48 h, read-out: IC50 48h
[4] = Hep-2, 72 h, read-out: IC50 72h
[5] = CAL 27, 24 h, read-out: IC50 24h
[6] = CAL 27, 48 h, read-out: IC50 48h
[7] = CAL 27, 72 h, read-out: IC50 72h
[8] = Detroit 562, 24 h, read-out: IC50 24h
[9] = Detroit 562, 48 h, read-out: IC50 48h
[10] = Detroit 562, 72 h, read-out: IC50 72h
[11] = TR146, 24 h, read-out: IC50 24h
[12] = TR146, 48 h, read-out: IC50 48h
[13] = TR146, 72 h, read-out: IC50 72h
[14] = SCC-9, 24 h, read-out: IC50 24h
[15] = SCC-9, 48 h, read-out: IC50 48h
[16] = SCC-9, 72 h, read-out: IC50 72h

Structure (SMILES)	IC50 (KB; 24 h, read-out: IC50 24h)	IC50 (KB; 48 h, read-out: IC50 48h)	IC50 (KB; 72 h, read-out: IC50 72h)	IC50 (Hep-2; [2])	IC50 (Hep-2; [3])	IC50 (Hep-2; [4])	IC50 (CAL 27; [5])	IC50 (CAL 27; [6])	IC50 (CAL 27; [7])	IC50 (HGF; 24 h, read-out: IC50 24h)	IC50 (HGF; 48 h, read-out: IC50 48h)	IC50 (HGF; 72 h, read-out: IC50 72h)	IC50 (Detroit 562; [8])	IC50 (Detroit 562; [9])	IC50 (Detroit 562; [10])	IC50 (TR146; [11])	IC50 (TR146; [12])	IC50 (TR146; [13])	IC50 (SCC-9; [14])	IC50 (SCC-9; [15])	other results
Cc1ccc(C(C)C)cc1.Cc1ccc(C(C)C)cc1.O=C1C(=Cc2cccnc2)CCC1=Cc1cccnc1.[Cl][Ru][Cl].[Cl][Ru][Cl] [Complex 4]	20.8 ± 0.77 µM	25.2 ± 0.33 µM	30.3 ± 0.65 µM	88 ± 4.03 µM	21.2 ± 0.02 µM	37.65 ± 0.36 µM	27.1 ± 0.79 µM	16.1 ± 0.57 µM	33.3 ± 0.65 µM	28.2 ± 2.78 µM	9 ± 1.68 µM	13.9 ± 0.59 µM	21.7 ± 2.45 µM	42.2 ± 0.62 µM	18.1 ± 2.63 µM	59.3 ± 3.24 µM	16.8 ± 0.81 µM	18.2 ± 1.07 µM	14.3 µM	16.6 ± 0.71 µM	Reduction of LPS-induced NF-κB activation ([1]; 15 μM): about 70%; IC50 (SCC-9; [16]): 3.65 ± 0.4 µM; IC50 (FaDu; 24 h, read-out: IC50 24h): 25.9 ± 0.25 µM; IC50 (FaDu; 48 h, read-out: IC50 48h): 17.1 ± 2.24 µM; IC50 (FaDu; 72 h, read-out: IC50 72h): 21.6 ± 0.73 µM; Decrease of IL-8 concentration (IL-8; 15 µM): approximately 30%; Cytotoxicity in THP1-Blue NF-κB cells (MTT) (THP1-Blue NF-κB cells): Neither complex 3, complex 4, nor curcumin exhibited significant cytotoxicity
Cc1ccc(C(C)C)cc1.Cc1ccc(C(C)C)cc1.O=C1C(=Cc2ccnc3ccccc23)COCC1=Cc1ccnc2ccccc12.[Cl][Ru][Cl].[Cl][Ru][Cl] [Complex 3]	14.3 µM	10.5 ± 0.43 µM	3.7 ± 0.42 µM	12.7 µM	11.1 ± 0.32 µM	5.15 ± 0.07 µM	22.5 ± 1.08 µM	12.9 ± 2.56 µM	6.35 ± 1.75 µM	20.8 ± 3.95 µM	13 ± 0.27 µM	9.15 ± 1.2 µM	12.3 ± 1.83 µM	3.9 ± 0.13 µM	3.5 ± 0.11 µM	19.7 ± 4.82 µM	11.3 ± 0.78 µM	4.9 ± 0.42 µM	4.7 µM	2.85 ± 0.01 µM	Reduction of LPS-induced NF-κB activation ([1]; 8 μM): approximately 80%; IC50 (SCC-9; [16]): 2.8 ± 0.01 µM; IC50 (FaDu; 24 h, read-out: IC50 24h): 8.65 µM; IC50 (FaDu; 48 h, read-out: IC50 48h): 5.75 ± 0.06 µM; IC50 (FaDu; 72 h, read-out: IC50 72h): 3.85 ± 0.24 µM; IL-8 reduction relative to curcumin (IL-8; 1 µM versus curcumin at 5 µM): roughly 1.5 fold; Decrease of IL-8 concentration (IL-8; 8 µM): approximately 40%; Cytotoxicity in THP1-Blue NF-κB cells (MTT) (THP1-Blue NF-κB cells): Neither complex 3, complex 4, nor curcumin exhibited significant cytotoxicity
